The record followed here is US12390423B2 (priority 2019, dated 2025).

Assay [1] has as its system INS-1 (832/13) cells. Put plainly: Glucose stimulated insulin secretion (GSIS) in INS-1 (832/13) cells. Conditions: 0.5 mM palmitate 24 h, AvoB 25 μM, ETO 100 μM. The format is cell-based, rat. As to the method:
To measure glucose stimulated insulin secretion (GSIS) in INS-1(832/13) cells a standard protocol was adopted. […] After treatments were complete, cell media was replaced with KRB (Krebs-Ringer Bicarbonate) buffer. Cells were then challenged with 3 mM glucose for 2 h in KRB buffer after which 500 μL KRB buffer was collected and frozen in −80° C. until analysis. For another 2 h, cells were challenged with 16 mM glucose after which 500 μL KRB was collected and frozen in −80° C. until analysis. The amount of insulin released into the KRB buffer was determined by an ELISA kit (Millipore, Rat/Mouse Insulin Detection kit). Data was normalized for cellular protein content, as determined by the Micro-BCA Protein Assay kit. The glucose-dependent insulin secretory index (GSIS16/3), defined as the ratio between the insulin secretion at 16 mM (stimulatory, surrogate to postprandial glucose levels) and 3 mM (basal, surrogate to fasting glucose levels) glucose was also calculated.

Assay [2] has as its system INS-1 (832/13) cells. The assay is described as follows: Cytosolic calcium determination (fluo-3AM) in INS-1 (832/13) cells. The assay is classed as cell-based, rat. To be noted: 0.5 mM palmitate, non-stimulatory glucose, AvoB 25 μM, ETO 100 μM, TMB-8 10 μM. As to the method: INS-1 (832/13) cells were treated as described for the FAO assays but also with metabolic modulators dichloroacetate (DCA) (1 mM) and trimetazidine (25 μM) as well as 10 μM endoplasmic reticulum calcium blocker 8-(N,N-Diethylamino)-octyl-3,4,5-trimethoxybenzoate HCl (TMB-8) (Sigma Aldrich) or 25 nM cyclosporin (Sigma Aldrich) in the presence of 0.5 mM palmitate/1 mM L-carnitine. Cytosolic calcium was measured in INS-1 (832/13) cells using fluo-3AM (Invitrogen, F1241) charged fluorescent dye that accumulates in the cytosol and emits green fluorescence after binding calcium ions. A stock solution of 10 mM fluo-3AM was diluted to 5 μM in fluo-3AM loading buffer (10 mM 4-(2-hydroxyethyl)-1-piperazineethanesulfonic acid (HEPES), 137 mM NaCl, […], 1 mM Na2HPO4, 5 mM glucose, and 0.5 mM MgCl2 (pH 7.4)]. After treatment, cells were incubated in fluo-3AM loading buffer for 30 min at 37° C. with gentle agitation after which cells were washed twice with PBS, trypsinized and collected for flow cytometry analysis. Cytosolic calcium was quantified by taking the mean green fluorescence values of live gated cells and normalizing to vehicle control.

Assay [3] deals with C2C12 myotubes. The assay is described as follows: Cellular ATP content in C2C12 myotubes. The format is cell-based, mouse. To be noted: 0.5 mM palmitate 24 h, AVO 25 μM, DCA 1 mM, TRI 25 μM. How it is done:
Total cellular ATP content was determined using the ATP bioluminescent assay kit (Calbiochem, 119107). Briefly, cells were seeded in white walled 96-well plates (1.2×10^4 cells/well for INS-1 and 2×10^4 cells/well for C2C12) and treated for 24 h (C2C12 cells were differentiated for 5 days prior to treatments whereas INS-1 cells were treated 24 h after seeding). After treatment, culture media was removed, and cells were lysed with nucleotide releasing buffer with gentle shaking for 5 min. ATP monitoring enzyme was then added to cell lysates and plates and luminescence was read in a Biotek Synergy HT spectrophotometer (Biotek; Winooski, VT).

For assay [4], the system named is insulin signaling (pAkt-Ser473), MAPK, AMPK. The assay is described as follows: Immunoblotting (pAkt, pERK1/2, pP38, pAMPKα, PGC-1α) and NAO mitochondrial mass in C2C12 myotubes. The assay is classed as cell-based, mouse. Conditions: 0.5 mM palmitate 24 h, 100 nM insulin 30 min, AvoB 25 μM, DCA 1 mM, TRI 25 μM. How it is done:
For all ROS studies, INS-1 (832/13) cells and C2C12 myotubes were treated with or without palmitate and FAO inhibitors for 24 h in low glucose cell culture media as described for the FAO assay. After treatment, cells were trypsinized and re-suspended in PBS containing 5 μM of the fluorescent dye MitoSOX® (Molecular Probes, Invitrogen) and allowed to incubate for 5-15 minutes in a humidified atmosphere containing 5% CO2 at 37° C. Cells were then washed in PBS, placed in a 96 well plate and fluorescence was measured by flow cytometry. ROS was quantified by normalizing the mean fluorescence values of live gated cells to vehicle control. Mitochondrial membrane potential (MMP) in INS-1 (832/13) and C2C12 myotubes was measured using the cationic fluorescent dye JC-1 (Molecular Probes). JC-1 accumulates in the mitochondrial matrix in an MMP dependent manner. JC-1 fluoresces green in the cytosol where it exists as a monomer, after entering the mitochondria JC-1 monomers form J aggregates and fluoresce red, thus the red/green fluorescence ratio is used to determine MMP. After all treatments, cells were washed, trypsinized and re-suspended in PBS containing 1 μM JC-1 and allowed to incubate for 5-10 minutes in a humidified atmosphere containing 5% CO2 at 37° C. Cells were then washed in PBS, placed in a 96 well plate and fluorescence was measured by flow cytometry. MMP was quantified by normalizing the mean fluorescence values of live gated cells to vehicle control. Mitochondrial mass was measured using 10-N-nonyl acridine orange (NAO; Enzo Life Sciences, ENZ-52306), which accumulates in the mitochondria in an MMP-independent manner where it binds to cardiolipin in the inner mitochondrial membrane. Cells were treated, washed and collected as described and incubated with 0.35 μM NAO and green fluorescence was measured using flow cytometry. In all analysis (ROS, MMP and mitochondrial mass), forward vs side scatter plots were gated to exclude debris (e.g., dead cells), as cell death is associated with increased ROS and altered membrane potentials. For all cell culture experiments, after drug treatments cells were washed with chilled phosphate-buffered saline (PBS), and lysed in chilled lysis buffer with 1× protease inhibitor cocktail (Sigma). RIPA lysis buffer (Sigma-Aldrich) was used for INS-1 (832/13) cells and muscle lysis buffer for C2C12 myotubes (20 mM HEPES, 10 mM NaCl, 1.5 mM MgCl2, 1 mM DTT, 20% glycerol, and 0.1% Triton-X100). Cells were scraped, mechanically homogenized using a syringe and centrifuged at 14,000×g for 20 min at 4° C. and the supernatants were collected. For preparation of all gastrocnemius muscle lysates, 10 mg frozen tissue (wet weight) was washed in chilled PBS, placed in a dounce homogenizer, lysed in muscle lysis buffer and centrifuged at 14,000×g for 20 min at 4° C. and the supernatant was collected. Protein content for cell and tissue lysates was measured using the BCA protein assay kit (ThermoFisher) according to manufacturer's protocol. Thirty μg protein lysates were prepared in loading buffer and immunoblotting was performed by heating lysates for 5 minutes at 95° C. and subjecting them to gel electrophoresis on 10% SDS-polyacrylamide gels at 150 V for 75 minutes. Using a semi-dry transfer apparatus (Bio-Rad) the gels were then transferred at 25V for 45 minutes to a PVDF membrane and blocked with 5% BSA (Sigma) in tris-buffered saline-tween (TBS-T) for 1 hour. […]

Turning to `CCOC(=O)[C@@]1(CCCCCCOc2ccc(Cl)cc2)CO1` [ETO, etomoxir, reference compound], the “Glucose stimulated insulin secretion (GSIS)” value in assay [1] is given as “GSIS was higher”. Moreover, the “Cytosolic Ca2+ (Fluo-3AM)” value in assay [2] is recorded as “able to reduce cytosolic Ca^2+”.

Take `CCN(CC)CCCCCCCCOC(=O)c1cc(OC)c(OC)c(OC)c1.Cl` [TMB-8, 8-(N,N-Diethylamino)-octyl-3,4,5-trimethoxybenzoate HCl]: the “Cytosolic Ca2+ (Fluo-3AM)” value in assay [2] is reported as “able to reduce cytosolic Ca^2+”. As to `COc1ccc(CN2CCNCC2)c(OC)c1OC` [trimetazidine, reference compound], the “Total cellular ATP content” value in assay [3] is reported as “did not exert such effects”. Moreover, the “Insulin signaling (insulin stimulated phosphorylation of AKT Ser473)” value in assay [4] is recorded as “did not exert such effects”.
